Calls of active or inactive are those of the source. The rule behind the calls is not given here.
System: rodent carcinogenicity bioassays, tumor incidence
Assay: CCRIS carcinogenicity studies
In short: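 NCI-built, expert-reviewed records of carcinogenicity and related test outcomes (mutagenicity, tumor promotion/inhibition) compiled from published and report sources, historical span 1985-2011, not updated.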

c1ccc2n[nH]nc2c1 was tested, and the carcinogen call (Species: MOUSE, Strain/Sex: B6C3F1/FEMALE, Route: ORAL, Dose: 0, 11700, 23500 PPM IN DIET FOR 104 WK (STUDY DURATION: 106-109 WK), Dose: 0, 11700, 23500 PPM IN DIET FOR 104 WK (STUDY DURATION: 106-109 WK), Tumor Site: Type of Lesion: LUNG: ALVEOLAR/BRONCHIOLAR CARCINOMA) was “equivocal”, the carcinogen call (Species: MOUSE, Strain/Sex: B6C3F1/MALE, Route: ORAL, Dose: 0, 11700, 23500 PPM IN DIET FOR 104 WK (STUDY DURATION: 106-109 WK), Dose: 0, 11700, 23500 PPM IN DIET FOR 104 WK (STUDY DURATION: 106-109 WK)) was “inactive; negative” and the carcinogen call (Species: RAT, Strain/Sex: F344/FEMALE, Route: ORAL, Dose: 0, 6700, 12100 PPM IN DIET FOR 78 WK (STUDY DURATION: 105-106 WK), Dose: 0, 6700, 12100 PPM IN DIET FOR 78 WK (STUDY DURATION: 105-106 WK), Tumor Site: Type of Lesion: BRAIN: TUMOR) was “equivocal”. For the same compound, the carcinogen call (Species: RAT, Strain/Sex: F344/MALE, Route: ORAL, Dose: 0, 6700, 12100 PPM IN DIET FOR 78 WK (STUDY DURATION: 105-106 WK), Dose: 0, 6700, 12100 PPM IN DIET FOR 78 WK (STUDY DURATION: 105-106 WK), Tumor Site: Type of Lesion: BRAIN: TUMOR) was “equivocal”.
NC(=S)Nc1ccccc1 was tested, and the carcinogen call (Species: MOUSE, Strain/Sex: B6C3F1/FEMALE, Route: ORAL, Dose: 0, 150, 300 PPM IN DIET, Dose: 0, 150, 300 PPM IN DIET) was “inactive; negative”, the carcinogen call (Species: MOUSE, Strain/Sex: B6C3F1/MALE, Route: ORAL, Dose: 0, 150, 300 PPM IN DIET, Dose: 0, 150, 300 PPM IN DIET) was “inactive; negative” and the carcinogen call (Species: RAT, Strain/Sex: F344/FEMALE, Route: ORAL, Dose: 0, 60, 120 PPM IN DIET, Dose: 0, 60, 120 PPM IN DIET) was “inactive; negative”. The carcinogen call (Species: RAT, Strain/Sex: F344/MALE, Route: ORAL, Dose: 0, 60, 120 PPM IN DIET, Dose: 0, 60, 120 PPM IN DIET) was “inactive; negative”.
CC(=O)OCN(CC(C)C)N=O was tested, and the carcinogen call (Species: RAT, Strain/Sex: F344/FEMALE, Route: SUBCUTANEOUS, Dose: 6.6 MG/KG 1/WK FOR 10 WK, Tumor Site: Type of Lesion: INJECTION SITE: MALIGNANT FIBROUS HISTIOCYTOMA) was “active; positive”.
CC(=O)O[C@]1(C(C)=O)CC[C@H]2[C@@H]3C=C(Cl)C4=CC(=O)[C@@H]5C[C@@H]5[C@]4(C)[C@H]3CC[C@@]21C was tested, and the carcinogen call (Species: MOUSE, Strain/Sex: C57BL/FEMALE, Route: ORAL, Dose: 0, 800 PPM IN DIET FOR 97 WK (STUDY DURATION: 97 WK), Tumor Site: Type of Lesion: LIVER: HEPATOCELLULAR ADENOMA, HEPATOCELLULAR CARCINOMA) was “active; positive”, the carcinogen call (Species: MOUSE, Strain/Sex: C57BL/MALE, Route: ORAL, Dose: 0, 800 PPM IN DIET FOR 104 WK (STUDY DURATION: 104 WK), Tumor Site: Type of Lesion: LIVER: HEPATOCELLULAR ADENOMA, HEPATOCELLULAR CARCINOMA) was “active; positive” and the carcinogen call (Species: RAT, Strain/Sex: WISTAR/MALE, Route: GAVAGE, Dose: 0, 50 MG/KG IN TAP WATER 1/D FOR 21 D (STUDY DURATION: 79 WK)) was “inactive; negative”.
For CCOC(=O)C(O)(c1ccc(Cl)cc1)c1ccc(Cl)cc1, the carcinogen call (Species: MOUSE, Strain/Sex: B6C3F1/FEMALE, Route: ORAL, Dose: 0, 3200, 5908 PPM IN DIET FOR 78 WK (STUDY DURATION: 90-91 WK), Dose: 0, 3200, 5908 PPM IN DIET FOR 78 WK (STUDY DURATION: 90-91 WK), Tumor Site: Type of Lesion: LIVER: HEPATOCELLULAR CARCINOMA) was “active; positive”, the carcinogen call (Species: MOUSE, Strain/Sex: B6C3F1/MALE, Route: ORAL, Dose: 0, 4231, 7846 PPM IN DIET FOR 78 WK (STUDY DURATION: 90-91 WK), Dose: 0, 4231, 7846 PPM IN DIET FOR 78 WK (STUDY DURATION: 90-91 WK), Tumor Site: Type of Lesion: LIVER: HEPATOCELLULAR CARCINOMA) was “active; positive” and the carcinogen call (Species: RAT, Strain/Sex: OSBORNE-MENDEL/FEMALE, Route: ORAL, Dose: 0, 1175, 2229 PPM IN DIET FOR 78 WK (STUDY DURATION: 110-111 WK), Dose: 0, 1175, 2229 PPM IN DIET FOR 78 WK (STUDY DURATION: 110-111 WK), Tumor Site: Type of Lesion: ADRENAL GLAND: CORTICAL ADENOMA) was “equivocal”. The carcinogen call (Species: RAT, Strain/Sex: OSBORNE-MENDEL/MALE, Route: ORAL, Dose: 0, 1600, 2995 PPM IN DIET FOR 78 WK (STUDY DURATION: 110-111 WK), Dose: 0, 1600, 2995 PPM IN DIET FOR 78 WK (STUDY DURATION: 110-111 WK), Tumor Site: Type of Lesion: ADRENAL GLAND: CORTICAL ADENOMA) was “equivocal”.
With CCOC(=O)N(CC)N=O the carcinogen call (Species: HAMSTER, Strain/Sex: SYRIAN/FEMALE, Route: GAVAGE, Dose: 0, 14 MG/ML ((0.2 ML OF A SOLUTION IN ETHYL ACETATE/CORN OIL (1:2)) 1/WK FOR 28 WK (STUDY DURATION: LIFE SPAN), Tumor Site: Type of Lesion: PANCREAS: CARCINOMA OR ADENOMA, FORESTOMACH: SQUAMOUS CELL CARCINOMA OR PAPILLOMA) was “active; positive”, the carcinogen call (Species: RAT, Strain/Sex: DONRYU/FEMALE, Route: ORAL, Dose: 0, 25, 50, 100 PPM IN DRINKING WATER FOR 60 WK, Dose: 0, 25, 50, 100 PPM IN DRINKING WATER FOR 60 WK, Tumor Site: Type of Lesion: ORAL CAVITY: PAPILLOMA, CARCINOMA, ESOPHAGUS: PAPILLOMA, CARCINOMA, FORESTOMACH: PAPILLOMA, CARCINOMA, DUODENUM: ADENOMA, Tumor Site: Type of Lesion: ORAL CAVITY: PAPILLOMA, CARCINOMA, ESOPHAGUS: PAPILLOMA, CARCINOMA, FORESTOMACH: PAPILLOMA, CARCINOMA, DUODENUM: ADENOMA) was “active; positive” and the carcinogen call (Species: RAT, Strain/Sex: F344/FEMALE, Route: GAVAGE, Dose: 0, 0.36, 1.6 MG/ANIMAL IN CORN OIL 1/WK FOR 20 WK (STUDY DURATION: 114 WK), Dose: 0, 0.36, 1.6 MG/ANIMAL IN CORN OIL 1/WK FOR 20 WK (STUDY DURATION: 114 WK), Tumor Site: Type of Lesion: FORESTOMACH: CARCINOMA, PAPILLOMA OR CARCINOMA) was “active; positive”. For the same compound, the carcinogen call (Species: RAT, Strain/Sex: F344/FEMALE, Route: INTRAVESICULAR, Dose: 0, 0.8 MG 2/WK FOR 14 WK (STUDY DURATION: LIFETIME), Tumor Site: Type of Lesion: BLADDER: TUMOR) was “active; positive” and the carcinogen call (Species: RAT, Strain/Sex: F344/FEMALE, Route: ORAL, Dose: 0, 0.15, 0.6, 2.5, 10 PPM IN DISTILLED WATER FOR 2 YRS (STUDY DURATION: 112 WK), Dose: 0, 0.15, 0.6, 2.5, 10 PPM IN DISTILLED WATER FOR 2 YRS (STUDY DURATION: 112 WK), Tumor Site: Type of Lesion: ORAL CAVITY: PAPILLOMA, CARCINOMA, ESOPHAGUS: PAPILLOMA, CARCINOMA, FORESTOMACH: PAPILLOMA, CARCINOMA, Tumor Site: Type of Lesion: ORAL CAVITY: PAPILLOMA, CARCINOMA, ESOPHAGUS: PAPILLOMA, CARCINOMA, FORESTOMACH: PAPILLOMA, CARCINOMA) was “active; positive”.
In the case of CCOCn1c(-c2ccc(Cl)cc2)c(C#N)c(Br)c1C(F)(F)F, the carcinogen call (Species: Mouse, Strain/Sex: CD-1/Female (65/group), Route: Oral, Dose: 0, 20, 120, 240 ppm in diet for 80 wk, Dose: 0, 20, 120, 240 ppm in diet for 80 wk) is reported as “inactive; negative (study details not given in source; purity 94.5%)”, the carcinogen call (Species: Mouse, Strain/Sex: CD-1/Male (65/group), Route: Oral, Dose: 0, 20, 120, 240 ppm in diet for 80 wk, Dose: 0, 20, 120, 240 ppm in diet for 80 wk) is reported as “inactive; negative (study details not given in source; purity 94.5%)” and the carcinogen call (Species: Rat, Strain/Sex: Sprague-Dawley/Female (65/group), Route: Oral, Dose: 0, 60, 300, 600 ppm in diet for up to 104 wk, Dose: 0, 60, 300, 600 ppm in diet for up to 104 wk) is reported as “inactive; negative (study details not given in source; purity 94.5%)”. The carcinogen call (Species: Rat, Strain/Sex: Sprague-Dawley/Male (65/group), Route: Oral, Dose: 0, 60, 300, 600 ppm in diet for up to 104 wk, Dose: 0, 60, 300, 600 ppm in diet for up to 104 wk) was “inactive; negative (study details not given in source; purity 94.5%)”.
In the case of O=[N+]([O-])c1ccc2ccc3c4ccccc4cc4ccc1c2c43, the carcinogen call (Species: MOUSE, Strain/Sex: B6C3F1/MALE, Route: INTRAPERITONEAL, Dose: 0, 400 NMOL IN 35 µL DMSO ON DAYS 1 (1/7 TOTAL DOSE), 8 (2/7 TOTAL DOSE), AND 15 (4/7 TOTAL DOSE) AFTER BIRTH (STUDY DUR) is reported as “inactive; negative” and the carcinogen call (Species: RAT, Strain/Sex: F344/MALE, Route: SUBCUTANEOUS, Dose: 0, 500, 1000 UG SUSPENDED IN BEESWAX/TRICAPRYLIN (1:1) ONCE (STUDY DURATION: LIFETIME), Dose: 0, 500, 1000 UG SUSPENDED IN BEESWAX/TRICAPRYLIN (1:1) ONCE (STUDY DURATION: LIFETIME)) is reported as “inactive; negative”.
NC(=O)OCCO was tested, and the carcinogen call (Species: MOUSE, Strain/Sex: STRAIN-A/MALE, Route: INTRAPERITONEAL, Dose: 0, 1.12, 4.6, 11.2 MMOL/KG IN ISOTONIC SALINE ONCE AT 6 WK OF AGE (STUDY DURATION: 16 WK), Dose: 0, 1.12, 4.6, 11.2 MMOL/KG IN ISOTONIC SALINE ONCE AT 6 WK OF AGE (STUDY DURATION: 16 WK), Tumor Site: Type of Lesion: LUNG: ADENOMA) was “active; positive”.
